Values after ≈ are worked out from the molar mass of the structure shown.
Columns and labels:
physchem = conditions: kinetic from dmso stock
Method in brief: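 DMSO doubling dilutions were diluted twenty-fold into 100 mM citrate (pH 4), PBS (pH 7.4) or carbonate-bicarbonate (pH 9). After 24 h equilibration at room temperature, absorbance was read at 620 nm. The reported value is the highest concentration without measurable precipitate.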

[1] = tested on: Staphylococcus aureus (Isolate ID ATCC 29213); assay: Antibacterial activity, MIC, S. aureus; type: cell-based; conditions: Staphylococcus aureus, ATCC29213, Gram positive strain; broth microdilution or agar dilution
Method in brief: (§1)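 MICs were determined by broth microdilution or agar dilution following CLSI guidelines (M7-A7), testing susceptibility in liquid or on solid media.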

[2] = tested on: Enterococcus faecalis (Isolate ID ATCC 29212); assay: Antibacterial activity, MIC, E. faecalis; type: cell-based; conditions: Enterococcus faecalis, ATCC29212; Gram positive strain; broth microdilution or agar dilution
Method in brief: as §1

[3] = tested on: Streptococcus pyogenes (Isolate ID ATCC 51339); assay: Antibacterial activity, MIC, S. pyogenes; type: cell-based; conditions: Streptococcus pyogenes, ATCC51339, Gram positive strain; broth microdilution or agar dilution
Method in brief: as §1

[4] = tested on: Haemophilus influenzae (Isolate ID ATCC 49247); assay: Antibacterial activity, MIC, H. influenzae; type: cell-based; conditions: Haemophilus influenzae, ATCC49247; Gram negative strain; broth microdilution or agar dilution
Method in brief: as §1

[5] = pH 7.4, aqueous buffer, Solubility (pH 7.4)
[6] = pH 7.4, aqueous buffer, Solubility Range
[7] = pH 7.4, aqueous buffer, Max Solubility
[8] = pH 7.4, aqueous buffer, Solubility Range (maximum solubility)

Compound	solubility at 24 h (physchem; [5])	solubility at 24 h (physchem; [6])	solubility at 24 h (physchem; pH 9, aqueous buffer, Max Solubility)	solubility at 24 h (physchem; pH 9, aqueous buffer, Solubility Range (maximum solubility))	MIC [1]	MIC [2]	MIC [3]	MIC [4]	solubility at 24 h (physchem; [7])	solubility at 24 h (physchem; [8])	solubility at 24 h (physchem; pH 4, aqueous buffer, Max Solubility)	solubility at 24 h (physchem; pH 4, aqueous buffer, Solubility Range (maximum solubility))
CCNC(=O)Nc1nc2cc(-c3cnc(N4CCC(C)(C(=O)O)CC4)nc3)cc(-c3cc(C)c(F)cn3)c2s1 [Compound 85]	200 µg/mL (≈ 364 µM)	12.5 to 400 µg/mL (≈ 22.7 to 728 µM)	≥ 800 µg/mL	> 800 µg/mL	≤ 0.25 µg/mL	≤ 0.25 µg/mL	≤ 0.25 µg/mL	0.25 to 1 µg/mL (≈ 0.455 to 1.82 µM)	–	–	–	–
CCNC(=O)Nc1nc2cc(-c3cnc(N4CCC(C)(C(=O)O)CC4)nc3)cc(-c3nccnc3OC)c2s1 [Compound 86]	≥ 800 µg/mL	> 800 µg/mL	–	–	≤ 0.25 µg/mL	≤ 0.25 µg/mL	≤ 0.25 µg/mL	1 to 16 µg/mL (≈ 1.82 to 29.2 µM)	≥ 800 µg/mL	> 800 µg/mL	–	–
CCNC(=O)Nc1nc2cc(-c3cnc(N4CCC(C)(C(=O)O)CC4)nc3)cc(C3CC3)c2s1 [Compound 87, 1-{5-[7-Cyclopropyl-2-(3-ethyl-ureido)-benzothiazol-5-yl]-pyrimidin-2-yl}-4-methyl-piperidine-4-carboxylic acid]	≥ 800 µg/mL	> 800 µg/mL	–	–	0.25 to 1 µg/mL (≈ 0.52 to 2.08 µM)	≤ 0.25 µg/mL	0.25 to 1 µg/mL (≈ 0.52 to 2.08 µM)	1 to 16 µg/mL (≈ 2.08 to 33.3 µM)	≥ 800 µg/mL	> 800 µg/mL	–	–
CCNC(=O)Nc1nc2cc(-c3cnc(N4CCC(C)(C(=O)O)CC4)nc3)cc(-c3ccncc3)c2s1 [Compound 89]	≥ 800 µg/mL	> 800 µg/mL	–	–	0.25 to 1 µg/mL (≈ 0.483 to 1.93 µM)	≤ 0.25 µg/mL	0.25 to 1 µg/mL (≈ 0.483 to 1.93 µM)	1 to 16 µg/mL (≈ 1.93 to 30.9 µM)	≥ 800 µg/mL	> 800 µg/mL	–	–
CCNC(=O)Nc1nc2cc(-c3cnc(N4CCC(C)(C(=O)O)CC4)nc3)cc(-c3nccc(OC)c3C#N)c2s1 [Compound 90]	100 µg/mL (≈ 175 µM)	12.5 to 400 µg/mL (≈ 21.8 to 699 µM)	–	–	≤ 0.25 µg/mL	≤ 0.25 µg/mL	≤ 0.25 µg/mL	0.25 to 1 µg/mL (≈ 0.437 to 1.75 µM)	100 µg/mL (≈ 175 µM)	12.5 to 400 µg/mL (≈ 21.8 to 699 µM)	–	–
CCNC(=O)Nc1nc2cc(-c3cnc(N4CCC(C)(C(=O)O)CC4)nc3)cc(C(=O)N(C)CC)c2s1 [Compound 91, 1-[5-[2-(ethylcarbamoylamino)-7-[ethyl(methyl)carbamoyl]-1,3-benzothiazol-5-yl]pyrimidin-2-yl]-4-methyl-piperidine-4-carboxylic acid]	≥ 800 µg/mL	> 800 µg/mL	–	–	> 16 µg/mL	1 to 16 µg/mL (≈ 1.9 to 30.4 µM)	> 16 µg/mL	> 16 µg/mL	≥ 800 µg/mL	> 800 µg/mL	–	–
CCNC(=O)Nc1nc2cc(-c3cnc(N4CCC(C)(C(=O)O)CC4)nc3)cc(-c3cc(C)c(C#N)cn3)c2s1 [Compound 92]	6.25 µg/mL (≈ 11.2 µM)	< 12.5 µg/mL	–	–	≤ 0.25 µg/mL	≤ 0.25 µg/mL	≤ 0.25 µg/mL	0.25 to 1 µg/mL (≈ 0.449 to 1.8 µM)	–	–	12.5 µg/mL (≈ 22.5 µM)	12.5 to 400 µg/mL (≈ 22.5 to 719 µM)
CCNC(=O)Nc1nc2cc(-c3cnc(N4CCC(CC)(C(=O)O)CC4)nc3)cc(-c3cnccn3)c2s1 [Compound 99]	≥ 800 µg/mL	> 800 µg/mL	–	–	≤ 0.25 µg/mL	≤ 0.25 µg/mL	≤ 0.25 µg/mL	1 to 16 µg/mL (≈ 1.88 to 30 µM)	–	–	–	–
CCNC(=O)Nc1nc2cc(-c3cnc(N4CCC(CC)(C(=O)O)CC4)nc3)cc(-c3cc(C#N)ccn3)c2s1 [Compound 100]	12.5 µg/mL (≈ 22.5 µM)	12.5 to 400 µg/mL (≈ 22.5 to 719 µM)	–	–	≤ 0.25 µg/mL	≤ 0.25 µg/mL	≤ 0.25 µg/mL	1 to 16 µg/mL (≈ 1.8 to 28.7 µM)	–	–	–	–
CCNC(=O)Nc1nc2cc(-c3cnc(N4CCC(CC)(C(=O)O)CC4)nc3)cc(-c3nccc(C)n3)c2s1 [Compound 101]	≥ 800 µg/mL	> 800 µg/mL	–	–	≤ 0.25 µg/mL	≤ 0.25 µg/mL	≤ 0.25 µg/mL	1 to 16 µg/mL (≈ 1.83 to 29.3 µM)	–	–	–	–
CCNC(=O)Nc1nc2cc(-c3cnc(N4CCC(CC)(C(=O)O)CC4)nc3)cc(-c3cc(OC)ccn3)c2s1 [Compound 102]	≥ 800 µg/mL	> 800 µg/mL	–	–	≤ 0.25 µg/mL	≤ 0.25 µg/mL	≤ 0.25 µg/mL	1 to 16 µg/mL (≈ 1.78 to 28.5 µM)	–	–	–	–
CCNC(=O)Nc1nc2cc(-c3cnc(N4CCC(CC)(C(=O)O)CC4)nc3)cc(-c3ncccc3C#N)c2s1 [Compound 104]	12.5 µg/mL (≈ 22.5 µM)	12.5 to 400 µg/mL (≈ 22.5 to 719 µM)	–	–	≤ 0.25 µg/mL	≤ 0.25 µg/mL	≤ 0.25 µg/mL	1 to 16 µg/mL (≈ 1.8 to 28.7 µM)	–	–	–	–
